# Results: patent publication US5140018A, “1,3,2-benzodithiazole-1-oxide compounds” (Abbott Laboratories, priority 1991, dated 1992)
# Legend:
# Assay type in all cases: cell-based
# Candida albicans CCH 442 = experiment: In vitro antifungal MIC, Candida albicans CCH 442; conditions: CCH442; Candida albicans CCH 442; 35°-37° C., 48 hours; read-out: MIC
# Experimental: (§1) The in vitro antifungal activity of the compounds of the present invention against a variety of fungiwas determined as follow: Test medium was prepared by dissolving first 5 g of dextrose and then 6.7 g of Bacto Yeast Nitrogen Base® (commercially available from Difco Laboratories) in 100 mL of distilled water. The solution was filter-sterilized and diluted 1:10 with 0.01M pH 8.0 phosphate buffer solution, and the final pH of the medium adjusted to about pH 7.0 when necessary with either 0.1N hydrochloric acid solution of 0.1N sodium hydroxide solution. […] These concentrated stock solutions were diluted to a concentration of 200 μg/mL (twice the highest concentration desired for testing) with the test medium. Amphotericin B, similarly prepared, was used as a reference antifungal agent.
# (§2) The test organisms were then inoculated into test tubes containing approximately 3 to 10 mL of test medium and the test tubes incubated overnight at 37° C. A sample of each overnight culture was placed in a test tube and diluted using the test medium until a reading of 95% transmittance was obtained in a conventional UV/visible spectrophotometer set to 560 nm. The adjusted cultures were then diluted 1:50 with test medium. These diluted cultures served as the inocula for the assays which follow and were used within 15 minutes of preparation.
# (§3) Next, 2-fold serial dilutions of each test compound in test medium were prepared in a 96-well microtiter plate using calibrated microdiluters attached to an automatic (hand-held) diluter (available from Dynatech Laboratories).
# (§4) Using sterile calibrated droppers or a multi-point dispenser, the diluted inoculum suspension was added to each of the wells in the plate. When inoculation was complete, the microtiter tray was covered with a plastic plate sealer to minimize evaporation. After the plate had been sealed, a hole was made above each well with a sterile 26-gauge syringe needle in order to allow gas exchange. If plate sealers were not available, the microtiter trays were stacked in groups of five or less with an empty tray on top. The microtiter trays were then incubated in a humidified chamber at 35°-37° C. for 48 hours or until growth was visible in the growth control wells.
# (§5) The minimum inhibitory concentration (MIC) was defined as the lowest concentration of test compound yielding no growth, a slight haze or sparsely isolated colonies on the inoculum spot as compared to the growth control containing no test compound.
# Candida kefyr ATCC 28838 = experiment: In vitro antifungal MIC, Candida kefyr ATCC 28838; conditions: Kluyveromyces marxianus, ATCC28838; Candida kefyr ATCC 28838; 35°-37° C., 48 hours; read-out: MIC
# Experimental: as §1, §2, §3, §4, §5
# [1] = system: Torulopsis glabrata ATCC 15545; experiment: In vitro antifungal MIC, Torulopsis glabrata ATCC 15545; conditions: Nakaseomyces glabratus, ATCC15545; Torulopsis glabrata ATCC 15545; 35°-37° C., 48 hours; read-out: MIC
# Experimental: as §1, §2, §3, §4, §5
# [2] = system: Candida tropicalis NRRL-Y-112; experiment: In vitro antifungal MIC, Candida tropicalis NRRL-Y-112; conditions: NRRLY112; Candida tropicalis NRRL-Y-112; 35°-37° C., 48 hours; read-out: MIC
# Experimental: as §1, §2, §3, §4, §5
# [3] = system: Candida albicans ATCC 38247; experiment: In vitro antifungal MIC, Candida albicans ATCC 38247; conditions: ATCC38247; Candida albicans ATCC 38247; 35°-37° C., 48 hours; read-out: MIC
# Experimental: as §1, §2, §3, §4, §5
# [4] = system: Candida albicans ATCC 62376; experiment: In vitro antifungal MIC, Candida albicans ATCC 62376; conditions: ATCC62376; Candida albicans ATCC 62376; 35°-37° C., 48 hours; read-out: MIC
# Experimental: as §1, §2, §3, §4, §5
# [5] = system: Aspergillus niger ATCC 16404; experiment: In vitro antifungal MIC, Aspergillus niger ATCC 16404; conditions: ATCC16404; Aspergillus niger ATCC 16404; 35°-37° C., 48 hours; read-out: MIC
# Experimental: as §1, §2, §3, §4, §5
# Candida albicans 579A = experiment: In vitro antifungal MIC, Candida albicans 579A; conditions: Candida albicans 579A; 35°-37° C., 48 hours; read-out: MIC
# Experimental: as §1, §2, §3, §4, §5
# [6] = system: Candida albicans ATCC 10231; experiment: In vitro antifungal MIC, Candida albicans ATCC 10231; conditions: ATCC10231; Candida albicans ATCC 10231; 35°-37° C., 48 hours; read-out: MIC
# Experimental: as §1, §2, §3, §4, §5
# [7] = system: Cryptococcus albidus ATCC 34140; experiment: In vitro antifungal MIC, Cryptococcus albidus ATCC 34140; conditions: Naganishia albida, ATCC34140; Cryptococcus albidus ATCC 34140; 35°-37° C., 48 hours; read-out: MIC
# Experimental: as §1, §2, §3, §4, §5
SMILES,MIC (Candida albicans CCH 442) [µg/mL],MIC (Candida kefyr ATCC 28838) [µg/mL],MIC [1] [µg/mL],MIC [2] [µg/mL],MIC [3] [µg/mL],MIC [4] [µg/mL],MIC [5] [µg/mL],MIC (Candida albicans 579A) [µg/mL],MIC [6] [µg/mL],MIC [7] [µg/mL]
"CCCCCCCCCCN1Sc2ccccc2[S+]1[O-] (centres unmarked) [Example 8, 2-n-decyl-1,3,2-benzodithiazole-1-oxide]",6.25,1.56,3.12,3.12,6.25,6.25,1.56,6.25,1.56,12.5
CC(C)(C)CCN1Sc2ccccc2[S+]1[O-] (centres unmarked) [Example 15],1.56,0.78,1.56,3.12,25,1.56,1.56,3.12,1.56,12.5
"CC(C)(C)CC(C)(C)N1Sc2ccccc2[S+]1[O-] (centres unmarked) [Example 16, 2-(1,1,3,3-tetramethylbutyl)-1,3,2-benzodithiazole-1-oxide]",1.56,0.78,6.25,12.5,1.56,6.25,3.12,3.12,6.25,6.25
"[O-][S+]1c2ccccc2SN1CCO (centres unmarked) [Example 18, 2-(2-hydroxyethyl)-1,3,2-benzodithiazole-1-oxide]",12.5,0.78,6.25,12.5,1.56,25,6.25,12.5,12.5,1.56
"CS(=O)(=O)OCCN1Sc2ccccc2[S+]1[O-] (centres unmarked) [Example 19, O-(2-(1,3,2-benzodithiazole-2-yl-1-oxide)ethyl)methanesulfonate]",100,1.56,6.25,25,100,100,12.5,50,50,12.5

# More lines, now with the values ahead:
MIC (Candida albicans CCH 442) [µg/mL],MIC (Candida kefyr ATCC 28838) [µg/mL],MIC [1] [µg/mL],MIC [2] [µg/mL],MIC [3] [µg/mL],MIC [4] [µg/mL],MIC [5] [µg/mL],MIC (Candida albicans 579A) [µg/mL],MIC [6] [µg/mL],MIC [7] [µg/mL],SMILES
1.56,0.78,1.56,1.56,1.56,1.56,0.78,0.78,1.56,6.25,"CCCCCCCCCN1Sc2ccccc2[S+]1[O-] (centres unmarked) [Example 7, 2-n-nonyl-1,3,2-benzodithiazole-1-oxide]"
0.78,0.2,0.39,0.78,6.25,0.39,0.2,0.39,0.39,3.12,"C=CCN1Sc2ccccc2[S+]1[O-] (centres unmarked) [Example 10, 2-allyl-1,3,2-benzodithiazole-1-oxide]"
0.78,0.78,0.39,1.56,–,0.39,1.56,0.78,0.39,1.56,"C#CCN1Sc2ccccc2[S+]1[O-] (centres unmarked) [Example 12, 2-propargyl-1,3,2-benzodithiazole-1-oxide]"
1.56,0.2,1.56,3.12,6.25,0.78,0.78,1.56,1.56,3.12,"CC(C)(C)N1Sc2ccccc2[S+]1[O-] (centres unmarked) [Example 14, 2-t-butyl-1,3,2-benzodithiazole-1-oxide]"
